In ChEMBL document CHEMBL5356955, “Thiamine analogues featuring amino-oxetanes as potent and selective inhibitors of pyruvate dehydrogenase” (Bioorg Med Chem Lett, 2024):

Experiments:
[1] = target: T1, Pyruvate dehydrogenase E1 component subunit alpha, somatic form, mitochondrial (Sus scrofa, UniProt P29804); assay: Inhibition of porcine PDHc E1-subunit incubated for 30 mins followed by pyruvate addition in presence of thiamine pyrophosphate by microplate reader analysis
T1 sequence (P29804 whole entry): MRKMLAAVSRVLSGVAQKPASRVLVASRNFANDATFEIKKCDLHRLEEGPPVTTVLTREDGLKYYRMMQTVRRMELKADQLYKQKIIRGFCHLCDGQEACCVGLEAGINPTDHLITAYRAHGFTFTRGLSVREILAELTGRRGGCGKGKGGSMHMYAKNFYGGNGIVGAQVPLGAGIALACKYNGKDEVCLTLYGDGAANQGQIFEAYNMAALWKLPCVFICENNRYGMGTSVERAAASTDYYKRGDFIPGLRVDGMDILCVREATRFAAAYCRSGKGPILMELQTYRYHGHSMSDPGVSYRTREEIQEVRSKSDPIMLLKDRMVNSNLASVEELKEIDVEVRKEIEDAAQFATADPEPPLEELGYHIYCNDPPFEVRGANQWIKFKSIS

[2] = target: T2, Pyruvate dehydrogenase E1 component subunit alpha, somatic form, mitochondrial (Sus scrofa) (UniProt P29804); assay: Binding affinity to porcine PDHc E1-subunit assessed as KM(TPP)/Ki ratio incubated for 30 mins followed by pyruvate addition by microplate reader analysis
T2 sequence (whole entry): T1 sequence (P29804 whole entry)

[3] = target: T1, Pyruvate dehydrogenase E1 component subunit alpha, somatic form, mitochondrial; assay: Binding affinity to porcine PDHc E1-subunit assessed as inhibition constant incubated for 30 mins followed by pyruvate addition by microplate reader analysis
[4] = target: T2, Pyruvate dehydrogenase E1 component subunit alpha, somatic form, mitochondrial (Sus scrofa); assay: Inhibition of porcine PDHc E1-subunit at 10 uM at 1:1 compound: thiamine pyrophosphate ratio incubated for 30 mins followed by pyruvate addition by microplate reader analysis relative to control
[5] = target: T2, Pyruvate dehydrogenase E1 component subunit alpha, somatic form, mitochondrial (Sus scrofa); assay: Inhibition of porcine PDHc E1-subunit at 10 uM at 1:5 compound: thiamine pyrophosphate ratio incubated for 30 mins followed by pyruvate addition by microplate reader analysis relative to control
[6] = Permeability of the compound assessed as absorbed fraction by PAMPA assay; format: ADME
[7] = Metabolic stability of the compound assessed as porcine liver esterase mediated hydrolysis at pH 7.4 measured after 4 hrs by UPLC analysis; format: ADME, Sus scrofa; conditions: pig, isolated protein, pH 7.4, 4 h
[8] = Stability of the compound assessed as compound remaining in 0.1 M aqueous K2CO3 incubated for 1 hr by NMR analysis; format: physicochemical; conditions: read-out: Stability
[9] = Drug metabolism in porcine liver esterase assessed as 2-(4-((4-amino-2-methylpyrimidin-5-yl)methyl)-3-methylthiophen-2-yl)ethan-1-ol formation at pH 7.4 measured after 4 hrs; format: ADME, Sus scrofa; conditions: pig, pH 7.4, 4 h
[10] = Thermal stability of the compound assessed as compound remaining in DMSO at 70 degreeC incubated for 2 hrs by NMR analysis; format: physicochemical; conditions: read-out: Stability
[11] = Stability of the compound assessed as porcine liver esterase mediated compound degradation by measuring compound recovery at 0.05 mmol measured after 30 mins by NMR analysis; format: ADME, Sus scrofa; conditions: pig, read-out: Stability
[12] = Stability of the compound assessed as compound remaining in 1 M aqueous NaOH at 37 degreeC incubated for 2 hrs by NMR analysis; format: physicochemical; conditions: read-out: Stability
[13] = Stability of the compound assessed as compound remaining in 1 M aqueous HCl at 37 degreeC incubated for 2 hrs by NMR analysis; format: physicochemical; conditions: read-out: Stability
[14] = Stability of the compound assessed as compound remaining in 0.1M aqueous phosphate buffer at pH 7.4 incubated for 2 hrs by NMR analysis; format: physicochemical; conditions: read-out: Stability

| Structure (SMILES) | IC50 [1] [µM] | Ratio [2] | Ki [3] [nM] | inhibition [4] [%] | inhibition [5] [%] | permeability [6] [%] | also measured |
| --- | --- | --- | --- | --- | --- | --- | --- |
| Cc1ncc(Cn2cc(CCNC(=O)c3ccc(Cl)cc3)nn2)c(N)n1 | 66 | – | – | – | – | – | – |
| COc1ccc(C(=O)OCC[C@H]2SCN(Cc3cnc(C)nc3N)[C@H]2C)cc1 (racemic) | 3.5 | 2.86 | 17.5 | – | – | – | – |
| Cc1ncc(Cn2cc(CCO)nn2)c(N)n1 | 30 | – | 150 | – | – | – | – |
| Cc1ncc(Cc2coc(CCNC(=O)c3ccc(Cl)cc3)c2)c(N)n1 | 9.2 | – | – | – | – | – | – |
| Cc1ncc(Cc2coc(CCOC(=O)c3ccc(Cl)cc3)c2)c(N)n1 | 3.3 | – | – | – | – | – | – |
| COc1ccc(C(=O)NCCc2cn(Cc3cnc(C)nc3N)nn2)cc1 | 35 | 0.29 | 175 | 22 | < 10 | 26 | – |
| COc1ccc(C2(NCCc3cn(Cc4cnc(C)nc4N)nn3)COC2)cc1 | 7.8 | 1.28 | 39 | 58 | 20 | 35 | – |
| COc1ccc(C(=O)NCCc2scc(Cc3cnc(C)nc3N)c2C)cc1 | 5.1 | 1.96 | 25.5 | 65 | 28 | 35 | Stability [7]: Stable |
| Cc1ncc(Cc2coc(CCNC(=O)c3cccnc3)c2)c(N)n1 | 2.5 | – | – | – | – | – | – |
| Cc1ncc(Cc2csc(CCO)c2C)c(N)n1 [3-DEAZATHIAMINE] | 3.6 | 2.78 | 18 | – | – | – | – |
| COc1ccc(C(=O)OCCc2cn(Cc3cnc(C)nc3N)nn2)cc1 | 6.3 | 1.59 | 31.5 | 63 | 25 | 31 | – |
| COc1ccc(C(=O)OCCc2scc(Cc3cnc(C)nc3N)c2C)cc1 | 0.89 | 11.2 | 4.45 | > 90 | 72 | 39 | remaining at 1 h [8]: 31%; Stability [7]: Unstable; Drug metabolism [9]: Metabolite_Detected; remaining at 2 h [10]: > 90%; remaining at 0.5 h [11]: < 10%; remaining at 2 h [12]: 15%; remaining at 2 h [13]: 43%; remaining at 2 h [14]: > 90% |
| COc1ccc(C2(NCCc3scc(Cc4cnc(C)nc4N)c3C)COC2)cc1 | 0.99 | 10.1 | 4.95 | > 90 | 65 | 44 | remaining at 1 h [8]: > 90%; Stability [7]: Stable; remaining at 2 h [10]: > 90%; remaining at 0.5 h [11]: > 90%; remaining at 2 h [12]: > 90%; remaining at 2 h [13]: 22%; remaining at 2 h [14]: > 90% |
| Cc1ncc(CN2CS[C@H](CCO)[C@@H]2C)c(N)n1 (racemic) | 21 | 0.48 | 105 | – | – | – | – |
| Cc1ncc(Cn2cc(CCOC(=O)c3cccnc3)nn2)c(N)n1 | 3 | – | – | – | – | – | – |
